Results on 28 molecules are retold here after PubChem BioAssay (NCI).

The structures appear in SMILES notation.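 Cultured in 96-well plates, cells were exposed to test compound for 48 hours across five concentrations. TGI marks complete inhibition of growth.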

The test system of the first test is OVCAR-3 ovarian. In words: inhibition of tumour cell growth, NCI panel, 48 h.
Molecule `CC(=O)C1(O)CCC2(O)C3(O)CC=C4CC(O)CCC4(C)C3CC(OC(=O)c3ccc(O)cc3)C12C` (stereo unspecified) came in with a TGI of over 100 µM.
The molecule `Cn1c2c(c3ccccc31)CCN1C(=O)C34CCCC3CC21S4` (stereo unspecified) showed a TGI of over 100 µM.
`Clc1ccc(OCc2nnc(COc3ccc(OCc4nnc(COc5ccc(Cl)cc5Cl)o4)c(Cl)c3)o2)c(Cl)c1` came in with a TGI of 61.7 µM.
The same measure, in the same setting: next, `O=C1/C(=C/c2ccncc2)C(n2cccc2)c2c(Br)sc(Br)c21` (stereo unspecified): 3.38 µM.
As to `C=C1CC(COc2ccc3c(C)c(C)c(=O)oc3c2C)(c2ccccc2)OC1=O` (stereo unspecified), the TGI was found to be 9.66 µM.
For `CC(=O)OCC(=O)O[C@@H]1[C@H]2[C@@H](OC(=O)c3ccccc3)[C@@H](C)C[C@]2(O)[C@H](OC(C)=O)[C@@]2(C)C[C@]1(OC(C)=O)C[C@H]1C(=O)C(C)(C)[C@@H](OC(C)=O)[C@@H]12`, the TGI is over 25 µM.
Consider `O=C(Sc1c(-c2ccccc2)c(=O)n(-c2ccccc2)c(=S)n1-c1ccccc1)c1ccco1`, for which the TGI was over 100 µM.
In the case of `Cn1nc2c(c1N)Cc1c(nn(C)c1N)-c1ccccc1-2`, the TGI was over 100 µM.
On to `O=c1ccn(-c2ccccn2)c(=O)n1-c1ccccn1`, for which the TGI is over 100 µM.
On the same count and under the same terms, next, `O=C1NC(=S)NC(=O)C1C(c1ccc(Cl)cc1)C1C(=O)NC(=S)NC1=O`: over 100 µM.
As for `Cc1nnc2n1-c1ccccc1N(Cc1ccccc1)CC2`, the TGI is over 100 µM.
As to `CC(C)(C)c1cc(/C=C2/NC(=O)NC2=O)cc(C(C)(C)C)c1O`, the TGI stood at 27.9 µM.
On to `COc1cccc(N2C(=O)CS(=O)(=O)C2c2cccc(Oc3ccccc3)c2)c1` (stereo unspecified), for which the TGI was over 100 µM.
Take `O=C(/C=C\Nc1ccccc1O)C(F)(F)F`: the TGI was 87 µM.
In the case of `CC1(C)OC[C@@H](C[C@H](O)COCc2ccccc2)O1`, the TGI was over 100 µM.
In turn, `NC(N)=NS(=O)(=O)c1ccc(NC(=O)c2cccc3c(NNc4ccc(S(N)(=O)=O)cc4)c4ccccc4nc23)cc1` came in with a TGI of over 100 µM.
`Nc1nncc2[nH]cnc12` registered a TGI of over 100 µM.
As to `CN(C)CCNc1c([N+](=O)[O-])sc2ccc(Cl)cc12`, the TGI is over 100 µM.
With `CCOC(=O)Cn1nnc2cc(Nc3c(C)[n+]([O-])c4cc(F)c(OCC)cc4[n+]3[O-])ccc21`, the TGI was over 100 µM.
Molecule `O=[N+]([O-])/C(Cl)=C(/C(Cl)=C(Cl)Cl)N1CCCCC1` showed a TGI of 22.8 µM.
The molecule `COc1ccc2c(c1)-c1c(c3cc(OC)ccc3n1CCN(C)C)CC2` had a TGI of 28.1 µM.
Same read-out and setting: with `O=C1c2cccnc2S(=O)(=O)N1c1ccc([N+](=O)[O-])cc1` the figure was over 100 µM; with `CC1CCc2sc3nc4n(c(=O)c3c2C1)CC(C)S4` (stereo unspecified), 36.7 µM.
Still for that read-out and setting: with `N#Cc1nc(CCCN2C(=O)c3ccccc3C2=O)oc1N` the figure was over 100 µM.

In another test the test system is MCF7 breast. In words: inhibition of tumour cell growth, NCI panel, 48 h.
Take `O=CN1CCN(C(=O)c2ccco2)C1=S`: the TGI turned out to be 10.6 µM.
`CC(=O)C1(O)CCC2(O)C3(O)CC=C4CC(O)CCC4(C)C3CC(OC(=O)c3ccc(O)cc3)C12C` (stereo unspecified): the TGI is over 100 µM.
In turn, `Cn1c2c(c3ccccc31)CCN1C(=O)C34CCCC3CC21S4` (stereo unspecified) had a TGI of over 100 µM.
In turn, `Clc1ccc(OCc2nnc(COc3ccc(OCc4nnc(COc5ccc(Cl)cc5Cl)o4)c(Cl)c3)o2)c(Cl)c1` displayed a TGI of over 100 µM.
`O=C1/C(=C/c2ccncc2)C(n2cccc2)c2c(Br)sc(Br)c21` (stereo unspecified): the TGI was 12.7 µM.
Consider `COCC#C[C@@]1(O)CCCCC1CC(OC)OC` (stereo partly specified), for which the TGI is over 100 µM.
The molecule `C=C1CC(COc2ccc3c(C)c(C)c(=O)oc3c2C)(c2ccccc2)OC1=O` (stereo unspecified) registered a TGI of 3.56 µM.
`CC(=O)OCC(=O)O[C@@H]1[C@H]2[C@@H](OC(=O)c3ccccc3)[C@@H](C)C[C@]2(O)[C@H](OC(C)=O)[C@@]2(C)C[C@]1(OC(C)=O)C[C@H]1C(=O)C(C)(C)[C@@H](OC(C)=O)[C@@H]12` showed a TGI of over 25 µM.
On the same count and under the same terms, with `O=C(Sc1c(-c2ccccc2)c(=O)n(-c2ccccc2)c(=S)n1-c1ccccc1)c1ccco1` the figure was over 100 µM; with `Cn1nc2c(c1N)Cc1c(nn(C)c1N)-c1ccccc1-2`, over 100 µM; with `O=c1ccn(-c2ccccn2)c(=O)n1-c1ccccn1`, over 100 µM.
For `O=C1NC(=S)NC(=O)C1C(c1ccc(Cl)cc1)C1C(=O)NC(=S)NC1=O`, the TGI is over 100 µM.
Same read-out and setting: with `COC(=O)C1=C(C(=O)OC)SC(=C2SC3=C(SC(=C4SCCS4)S3)S2)S1` the figure was over 100 µM; with `Cc1nnc2n1-c1ccccc1N(Cc1ccccc1)CC2`, over 100 µM; with `CC(C)(C)c1cc(/C=C2/NC(=O)NC2=O)cc(C(C)(C)C)c1O`, 29.9 µM.
With `COc1cccc(N2C(=O)CS(=O)(=O)C2c2cccc(Oc3ccccc3)c2)c1` (stereo unspecified), the TGI worked out at 10.6 µM.
For the molecule `O=C(/C=C\Nc1ccccc1O)C(F)(F)F`, the TGI was over 100 µM.
`CC1(C)OC[C@@H](C[C@H](O)COCc2ccccc2)O1` displayed a TGI of over 100 µM.
In turn, `NC(N)=NS(=O)(=O)c1ccc(NC(=O)c2cccc3c(NNc4ccc(S(N)(=O)=O)cc4)c4ccccc4nc23)cc1` yielded a TGI of 86.3 µM.
The same measure, in the same setting: next, `Nc1nncc2[nH]cnc12`: over 31.6 µM; `CN(C)CCNc1c([N+](=O)[O-])sc2ccc(Cl)cc12`: over 100 µM; `CCOC(=O)Cn1nnc2cc(Nc3c(C)[n+]([O-])c4cc(F)c(OCC)cc4[n+]3[O-])ccc21`: over 100 µM.
For the molecule `O=[N+]([O-])/C(Cl)=C(/C(Cl)=C(Cl)Cl)N1CCCCC1`, the TGI was 17.4 µM.
The same measure, in the same setting: with `COc1ccc2c(c1)-c1c(c3cc(OC)ccc3n1CCN(C)C)CC2` the figure was 28.9 µM; with `NCCN(CCN(C(=O)Nc1ccccc1)c1ccccc1)C(=O)Nc1ccccc1`, 46.6 µM.
The molecule `O=C1c2cccnc2S(=O)(=O)N1c1ccc([N+](=O)[O-])cc1` yielded a TGI of over 100 µM.
`CC1CCc2sc3nc4n(c(=O)c3c2C1)CC(C)S4` (stereo unspecified) registered a TGI of 52.5 µM.
As to `N#Cc1nc(CCCN2C(=O)c3ccccc3C2=O)oc1N`, the TGI is over 100 µM.

The next test deals with MDA-MB-231 breast. In words: inhibition of tumour cell growth, NCI panel, 48 h.
Regarding `O=CN1CCN(C(=O)c2ccco2)C1=S`, the TGI is 33.9 µM.
Consider `CC(=O)C1(O)CCC2(O)C3(O)CC=C4CC(O)CCC4(C)C3CC(OC(=O)c3ccc(O)cc3)C12C` (stereo unspecified), for which the TGI was over 100 µM.
Turning to `Cn1c2c(c3ccccc31)CCN1C(=O)C34CCCC3CC21S4` (stereo unspecified), the TGI is over 100 µM.
In the case of `Clc1ccc(OCc2nnc(COc3ccc(OCc4nnc(COc5ccc(Cl)cc5Cl)o4)c(Cl)c3)o2)c(Cl)c1`, the TGI came out at 63.1 µM.
For the molecule `O=C1/C(=C/c2ccncc2)C(n2cccc2)c2c(Br)sc(Br)c21` (stereo unspecified), the TGI amounted to 4.96 µM.
In the case of `COCC#C[C@@]1(O)CCCCC1CC(OC)OC` (stereo partly specified), the TGI was over 100 µM.
Still for that read-out and setting: next, `C=C1CC(COc2ccc3c(C)c(C)c(=O)oc3c2C)(c2ccccc2)OC1=O` (stereo unspecified): 7.86 µM; `CC(=O)OCC(=O)O[C@@H]1[C@H]2[C@@H](OC(=O)c3ccccc3)[C@@H](C)C[C@]2(O)[C@H](OC(C)=O)[C@@]2(C)C[C@]1(OC(C)=O)C[C@H]1C(=O)C(C)(C)[C@@H](OC(C)=O)[C@@H]12`: over 25 µM; `O=C(Sc1c(-c2ccccc2)c(=O)n(-c2ccccc2)c(=S)n1-c1ccccc1)c1ccco1`: over 100 µM.
The same measure, in the same setting: next, `Cn1nc2c(c1N)Cc1c(nn(C)c1N)-c1ccccc1-2`: over 100 µM; `O=c1ccn(-c2ccccn2)c(=O)n1-c1ccccn1`: over 100 µM; `O=C1NC(=S)NC(=O)C1C(c1ccc(Cl)cc1)C1C(=O)NC(=S)NC1=O`: over 100 µM.
In the case of `COC(=O)C1=C(C(=O)OC)SC(=C2SC3=C(SC(=C4SCCS4)S3)S2)S1`, the TGI is over 100 µM.
Regarding `Cc1nnc2n1-c1ccccc1N(Cc1ccccc1)CC2`, the TGI was over 100 µM.
